Measurements as given in publication PMC11149917, “Translational and Therapeutic Evaluation of RAS-GTP Inhibition by RMC-6236 in RAS-Driven Cancers” (Cancer Discovery, 2024).
Read-outs that look alike come from different tables or passages of the source.

Test: Mouse blood and tissue PK (LC/MS-MS)
Assay type: in vivo
Conditions: for AUC(0-t): read-out: Blood AUClast
Experimental: For single-dose PKPD study, mice were randomized and assigned into groups (n = 3/dose/time point). […] Blood and tissues, including the tumor, brain, colon, ear skin, and muscle, were harvested at indicated time points. […] The whole blood, tumor, brain, colon, and ear skin concentrations of RMC-6236 were determined using liquid chromatography–tandem mass spectrometry (LC/MS-MS) methods. […] After thorough mixing and centrifugation, the supernatant was diluted with water or directly analyzed on a Sciex 5500 or Sciex 6500+ triple quadrupole mass spectrometer equipped with an ACQUITY or Shimadzu UPLC system. […] Bioanalysis on blood and tissue samples from xenograft models was run at Pharmaron and Wuxi AppTec. Concentrations reported as below the quantification limit were treated as zero for PK analysis. PK parameters were calculated by noncompartmental analysis of the concentration–time profiles using Phoenix WinNonLin (version 8.3 Certara). Apparent terminal elimination half-life (t1/2) values were calculated as ln(2)/k, where k represents the terminal elimination rate constant. Area under the concentration–time curve (AUC) values were estimated using a linear trapezoidal method. AUClast values were calculated from the dosing time to the last quantifiable concentration. Maximum concentration (Cmax) was recorded as observed.

[1] = mouse, whole blood, oral, 10 mg/kg, Model Validation Dataset, 10mg/kg_study6, read-out: Blood Concentration
[2] = mouse, whole blood, oral, 25 mg/kg, Model Development Dataset, 25mg/kg_study8, read-out: Blood Concentration
[3] = mouse, whole blood, oral, 25 mg/kg, Model Development Dataset, 25mg/kg_study8r (doses every 24 h, 0-[…])
[4] = mouse, whole blood, oral, 25 mg/kg, Model Validation Dataset, 25mg/kg_study6, read-out: Blood Concentration
[5] = mouse, whole blood, oral, 40 mg/kg, Model Development Dataset, 40mg/kg_study8, read-out: Blood Concentration
[6] = mouse, whole blood, oral, 40 mg/kg, Model Development Dataset, 40mg/kg_study8r (doses every 24 h, 0-[…])
[7] = mouse, whole blood, oral, 50 mg/kg, Model Validation Dataset, 50mg/kg_study6, read-out: Blood Concentration
[8] = mouse, whole blood, po, 1 mg/kg, NCI-H441 #1 (1 mg/kg), QD x 28 days
[9] = mouse, whole blood, po, 3 mg/kg, NCI-H441 (3 mg/kg), single dose
[10] = mouse, whole blood, po, 5 mg/kg, NCI-H441 #1 (5 mg/kg), QD x 28 days
[11] = mouse, whole blood, po, 10 mg/kg, NCI-H441 #1 (10 mg/kg), QD x 28 days
[12] = mouse, whole blood, po, 10 mg/kg, NCI-H441 (10 mg/kg), single dose
[13] = mouse, whole blood, po, 25 mg/kg, HPAC (25 mg/kg), single dose
[14] = mouse, whole blood, po, 25 mg/kg, KP-4 (25 mg/kg), single dose
[15] = mouse, whole blood, po, 25 mg/kg, NCI-H358 (25 mg/kg), single dose
[16] = mouse, whole blood, po, 25 mg/kg, NCI-H441 #1 (25 mg/kg), QD x 28 days
[17] = mouse, whole blood, po, 25 mg/kg, NCI-H441 #2 (25 mg/kg), QD x 10 days
[18] = mouse, whole blood, po, 25 mg/kg, NCI-H441 (25 mg/kg), single dose
[19] = mouse, whole blood, po, 25 mg/kg, NCI-H2122 (25 mg/kg), single dose

CCn1c(-c2cc(N3CCN(C)CC3)cnc2[C@H](C)OC)c2c3cc(ccc31)-c1csc(n1)C[C@H](NC(=O)[C@H]1C[C@@H]1C)C(=O)N1CCC[C@H](N1)C(=O)OCC(C)(C)C2 [RMC-6236]
concentration at 24 h (mouse, tumor, oral, 50 mg/kg, Model Validation Dataset, 50mg/kg_study6, 24 h, read-out: Tumor Concentration): 2100 nM | concentration at 48 h (mouse, tumor, oral, 50 mg/kg, Model Validation Dataset, 50mg/kg_study6, 48 h, read-out: Tumor Concentration): 1240 nM | concentration at 72 h (mouse, tumor, oral, 50 mg/kg, Model Validation Dataset, 50mg/kg_study6, 72 h): 0.621 µM | concentration at 8 h (mouse, tumor, oral, 50 mg/kg, NCI-H441 xenograft tumor, study NCI-H441#6, 50 mg/kg, 8h, read-out: RMC-6236 (nM) Tumor): 4770 nM | concentration at 24 h (mouse, tumor, oral, 50 mg/kg, NCI-H441 xenograft tumor, study NCI-H441#6, 50 mg/kg, 24h, read-out: RMC-6236 (nM) Tumor): 1960 nM | concentration at 8 h (mouse, tumor, oral, 100 mg/kg, KP-4, study KP-4 #4, 100 mg/kg, 8h, read-out: RMC-6236 (nM) Tumor): 10200 nM | concentration at 24 h (mouse, tumor, oral, 100 mg/kg, KP-4, study KP-4 #4, 100 mg/kg, 24h, read-out: RMC-6236 (nM) Tumor): 7000 nM | concentration at 24 h (mouse, tumor, oral, 100 mg/kg, NCI-H441 xenograft tumor, study NCI-H441#6, 100 mg/kg, 24h, read-out: RMC-6236 (nM) Tumor): 3020 nM | concentration at 48 h (mouse, tumor, oral, 100 mg/kg, NCI-H441 xenograft tumor, study NCI-H441#6, 100 mg/kg, 48h, read-out: RMC-6236 (nM) Tumor): 2060 nM | half-life (mouse, tumor, po, 3 mg/kg, NCI-H441 (3 mg/kg), single dose, read-out: Tumor t1/2 (converted)): 17.1 h | half-life (mouse, tumor, po, 25 mg/kg, HPAC (25 mg/kg), single dose, read-out: Tumor t1/2 (converted)): 14 h | half-life (mouse, tumor, po, 25 mg/kg, KP-4 (25 mg/kg), single dose, read-out: Tumor t1/2 (converted)): 11.3 h | half-life (mouse, tumor, po, 25 mg/kg, NCI-H358 (25 mg/kg), single dose, read-out: Tumor t1/2 (converted)): 10.2 h | half-life (mouse, tumor, po, 25 mg/kg, NCI-H441 (25 mg/kg), single dose, read-out: Tumor t1/2 (converted)): 46.1 h | concentration at 0.5 h (mouse, whole blood, oral, 10 mg/kg, Model Validation Dataset, 10mg/kg_study6): 0.435 µM | concentration at 1 h [1]: 0.642 µM | concentration at 2 h [1]: 0.642 µM | concentration at 4 h [1]: 0.441 µM | concentration at 8 h (mouse, whole blood, oral, 10 mg/kg, Model Validation Dataset, 10mg/kg_study6, 8 h, read-out: Blood Concentration): 309 nM | concentration at 24 h (mouse, whole blood, oral, 10 mg/kg, Model Validation Dataset, 10mg/kg_study6, 24 h, read-out: Blood Concentration): 3.91 nM | Cmax (mouse, whole blood, oral, 10 mg/kg, Naïve Mice #1 (10 mg/kg), single dose): 0.744 µg/mL | concentration at 0.5 h (mouse, whole blood, oral, 25 mg/kg, Model Development Dataset, 25mg/kg_study8): 0.806 µM | concentration at 1 h [2]: 0.979 µM | concentration at 2 h [2]: 1.41 µM | concentration at 4 h [2]: 1.43 µM | concentration at 8 h (mouse, whole blood, oral, 25 mg/kg, Model Development Dataset, 25mg/kg_study8, 8 h, read-out: Blood Concentration): 802 nM | concentration at 24 h (mouse, whole blood, oral, 25 mg/kg, Model Development Dataset, 25mg/kg_study8, 24 h, read-out: Blood Concentration): 7.71 nM | concentration at 216.5 h [3]: 1.18 µM | concentration at 220 h [3]: 0.849 µM | concentration at 240 h (mouse, whole blood, oral, 25 mg/kg, Model Development Dataset, 25mg/kg_study8r (doses every 24 h, 0-[…]), read-out: Blood Concentration): 0.0054 µM | concentration at 0.5 h (mouse, whole blood, oral, 25 mg/kg, Model Validation Dataset, 25mg/kg_study6): 0.598 µM | concentration at 1 h [4]: 0.885 µM | concentration at 2 h [4]: 1.54 µM | concentration at 4 h [4]: 1.14 µM | concentration at 8 h (mouse, whole blood, oral, 25 mg/kg, Model Validation Dataset, 25mg/kg_study6, 8 h, read-out: Blood Concentration): 755 nM | concentration at 24 h (mouse, whole blood, oral, 25 mg/kg, Model Validation Dataset, 25mg/kg_study6, 24 h, read-out: Blood Concentration): 15.6 nM | concentration at 0.5 h (mouse, whole blood, oral, 40 mg/kg, Model Development Dataset, 40mg/kg_study8): 1.32 µM | concentration at 1 h [5]: 1.58 µM | concentration at 2 h [5]: 2.77 µM | concentration at 4 h [5]: 1.48 µM | concentration at 8 h (mouse, whole blood, oral, 40 mg/kg, Model Development Dataset, 40mg/kg_study8, 8 h, read-out: Blood Concentration): 1200 nM | concentration at 24 h (mouse, whole blood, oral, 40 mg/kg, Model Development Dataset, 40mg/kg_study8, 24 h, read-out: Blood Concentration): 8 nM | concentration at 216.5 h [6]: 1.76 µM | concentration at 220 h [6]: 1.55 µM | concentration at 240 h (mouse, whole blood, oral, 40 mg/kg, Model Development Dataset, 40mg/kg_study8r (doses every 24 h, 0-[…]), read-out: Blood Concentration): 0.00754 µM | concentration at 0.5 h (mouse, whole blood, oral, 50 mg/kg, Model Validation Dataset, 50mg/kg_study6): 1.42 µM | concentration at 1 h [7]: 1.82 µM | concentration at 2 h [7]: 2.77 µM | concentration at 4 h [7]: 1.99 µM | concentration at 8 h (mouse, whole blood, oral, 50 mg/kg, Model Validation Dataset, 50mg/kg_study6, 8 h, read-out: Blood Concentration): 1350 nM | concentration at 24 h (mouse, whole blood, oral, 50 mg/kg, Model Validation Dataset, 50mg/kg_study6, 24 h, read-out: Blood Concentration): 22.4 nM | concentration at 48 h (mouse, whole blood, oral, 50 mg/kg, Model Validation Dataset, 50mg/kg_study6, 48 h, read-out: Blood Concentration): 2.76 nM | Cmax (mouse, whole blood, oral, 50 mg/kg, Naïve Mice #1 (50 mg/kg), single dose): 2.96 µg/mL | Cmax [8]: 0.0792 µg/mL | AUC(0-t) [8]: 0.384 µg·h/mL | half-life (mouse, whole blood, po, 1 mg/kg, NCI-H441 #1 (1 mg/kg), QD x 28 days, read-out: Blood t1/2 (converted)): 2.9 h | Cmax [9]: 0.219 µg/mL | AUC(0-t) [9]: 1.18 µg·h/mL | Cmax [10]: 0.286 µg/mL | AUC(0-t) [10]: 1.33 µg·h/mL | half-life (mouse, whole blood, po, 5 mg/kg, NCI-H441 #1 (5 mg/kg), QD x 28 days, read-out: Blood t1/2 (converted)): 4.09 h | Cmax [11]: 0.533 µg/mL | AUC(0-t) [11]: 2.77 µg·h/mL | half-life (mouse, whole blood, po, 10 mg/kg, NCI-H441 #1 (10 mg/kg), QD x 28 days, read-out: Blood t1/2 (converted)): 3.22 h | Cmax [12]: 0.52 µg/mL | AUC(0-t) [12]: 3.81 µg·h/mL | half-life (mouse, whole blood, po, 10 mg/kg, NCI-H441 (10 mg/kg), single dose, read-out: Blood t1/2 (converted)): 2.93 h | Cmax [13]: 1.31 µg/mL | AUC(0-t) [13]: 12 µg·h/mL | half-life (mouse, whole blood, po, 25 mg/kg, HPAC (25 mg/kg), single dose, read-out: Blood t1/2 (converted)): 2.62 h | Cmax [14]: 1.46 µg/mL | AUC(0-t) [14]: 12.5 µg·h/mL | half-life (mouse, whole blood, po, 25 mg/kg, KP-4 (25 mg/kg), single dose, read-out: Blood t1/2 (converted)): 2.61 h | Cmax [15]: 1.15 µg/mL | AUC(0-t) [15]: 8.71 µg·h/mL | half-life (mouse, whole blood, po, 25 mg/kg, NCI-H358 (25 mg/kg), single dose, read-out: Blood t1/2 (converted)): 2.78 h | Cmax [16]: 1.25 µg/mL | AUC(0-t) [16]: 6.95 µg·h/mL | half-life (mouse, whole blood, po, 25 mg/kg, NCI-H441 #1 (25 mg/kg), QD x 28 days, read-out: Blood t1/2 (converted)): 3.46 h | Cmax [17]: 1.08 µg/mL | AUC(0-t) [17]: 6.66 µg·h/mL | half-life (mouse, whole blood, po, 25 mg/kg, NCI-H441 #2 (25 mg/kg), QD x 10 days, read-out: Blood t1/2 (converted)): 2.67 h | Cmax [18]: 1.25 µg/mL | AUC(0-t) [18]: 9.06 µg·h/mL | half-life (mouse, whole blood, po, 25 mg/kg, NCI-H441 (25 mg/kg), single dose, read-out: Blood t1/2 (converted)): 3.11 h | Cmax [19]: 1.11 µg/mL | AUC(0-t) [19]: 7.93 µg·h/mL | half-life (mouse, whole blood, po, 25 mg/kg, NCI-H2122 (25 mg/kg), single dose, read-out: Blood t1/2 (converted)): 4.5 h | RMC-6236 (nM) Tumor (sheet Ear Skin, model Capan-2, study Capan-2 #3_PHA 2023, 3 mg/kg, 48h): BQL | RMC-6236 (nM) Tumor (sheet colon, Capan-2, Capan-2 #3_PHA 2023, 3 mg/kg, 24h): BQL | RMC-6236 (nM) Tumor (sheet colon, Capan-2, Capan-2 #3_PHA 2023, 3 mg/kg, 48h): BQL | RMC-6236 (nM) Tumor (sheet colon, Capan-2, Capan-2 #3_PHA 2023, 10 mg/kg, 48h): BQL | RMC-6236 (nM) Tumor (sheet colon, Capan-2, Capan-2 #3_PHA 2023, 25 mg/kg, 48h): BQL | RMC-6236 (nM) Tumor (sheet colon, Capan-2, Capan-2 #3_PHA 2023, 50 mg/kg, 48h): BQL | RMC-6236 (nM) Tumor (sheet colon, Capan-2, Capan-2 #3_PHA 2023, 100 mg/kg, 48h): BQL | RMC-6236 (nM) Tumor (sheet colon, KP-4, KP-4 #5, 25 mg/kg, 48h): BQL
